Data on 42 molecules can be found in US20160221948A1, “NITROGEN-CONTAINING SATURATED HETEROCYCLIC COMPOUND” (SUMITOMO CHEMICAL COMPANY, LIMITED, priority 2013, published 2016).

SMILES strings stand for the structures. A value given as a limit tells only on which side of the number the result lay.

The term EC50 denotes the concentration that produces a half-maximal response. Low values mean higher potency in that assay, high ones lower potency in that assay.

In this assay the target is human SSTR4 (Homo sapiens, UniProt P31391). Nature of the assay: Evaluation of agonist activities using human SSTR4-stably expressing cells (aequorin luminescence). Type of assay: cell-based. On the set-up: expressed in transfected cells; host or cells: HEK293. As to conditions: for EC50: luminescence signal, 1 μmol/L somatostatin taken as 100%; for SSTR4 agonist activity compared with other compounds: Tables 25 to 27. The protocol: Evaluation of Agonist Activities Using Cells that stably expressing human-derived SSTR4 (human SSTR4-stably expressing cells)
Chain of human SSTR4 (P31391 whole entry): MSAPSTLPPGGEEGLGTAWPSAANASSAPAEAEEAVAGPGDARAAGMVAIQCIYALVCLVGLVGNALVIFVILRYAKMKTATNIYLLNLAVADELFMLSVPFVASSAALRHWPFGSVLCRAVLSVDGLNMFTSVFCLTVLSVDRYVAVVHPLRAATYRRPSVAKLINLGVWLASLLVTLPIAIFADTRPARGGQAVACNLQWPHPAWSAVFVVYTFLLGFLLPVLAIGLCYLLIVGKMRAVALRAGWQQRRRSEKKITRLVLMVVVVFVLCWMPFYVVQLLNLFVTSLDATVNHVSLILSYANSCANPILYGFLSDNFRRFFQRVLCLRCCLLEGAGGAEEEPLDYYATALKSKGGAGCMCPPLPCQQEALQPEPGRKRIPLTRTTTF
(1) Human SSTR4-Stably Expressing Cells
Human SSTR4-stably expressing cells were prepared, and cultured. Specifically, HEK293 cells, human kidney-derived cells, were used as host cells. By introducing pcDNA3.1 (cat. No. V79020, invitrogen, Carlsbad, Calif., USA) to which human SSTR gene was inserted into HEK293 cells, human SSTR4-stably expressing cell line was obtained. For selection, G418 (cat. No. 16513-84, Nacalai tesque, Japan) was used.
As the culture medium, D-MEM medium (cat. No. 11995, GIBCO, USA), containing 10% FBS and 200 μg/mL G418, was used, the culture was performed in a 225 cm^2 flask (cat. No. 11-006-010, Iwaki, Japan).
At about 80% confluence, the cells were harvested by treating with 20-fold diluted 0.25% Trypsin-EDTA (cat. No. 35554-64, Nacalai, tesque, Japan). The harvested cells were prepared at a reaction medium composed of Hanks Buffer (cat. No. 14065-056, invitrogen, Carlsbad, Calif., USA)/20 mM Hepes (cat. No. 15630-080, invitrogen, Carlsbad, Calif., USA), and 0.1% BSA (cat. No. A7906, Sigma Aldrich, USA) to 70000 cells/mL. Gα16 and apoaequorin were transiently introduced to the harvested cells, and the cells were seeded to a 384 well plate (cat. No. 781090, Greiner, Germany) at about 2000 cells/30 μL/well. On the next day of cell seeding, Coelenterazine H (cat. No. S2011, Promega, USA) was added to each well (10 μL/well) to make a final concentration of 0.5 μmol/L, and the plate was centrifuged. Then, the plate was left at room temperature for 4 hours in shaded state.
(2) Preparation of Test Compounds
DMSO solution of each test compound having 1000-fold larger concentration than the final concentration was prepared. The DMSO solutions were made to have 10-fold concentration than the final concentration with Hanks/20 mmol/L Hepes/0.1% BSA.
(3) Evaluation of Agonist Activity
For detection of luminescence signal due to SSTR4-stimulation, FDSS7000 (manufactured by Hamamatsu Photonics K.K.) was used. To plates having cells and the luminescence substrate, solutions of test compounds were added, then each luminescence signal was measured for 90 seconds, and each relative luminescence unit (RLU) was calculated. Based on luminescence signal from the wells to which a 1 μmol/L somatostatin solution was added taken as 100%, agonist activity of each test compound was evaluated.

Consider `Cc1ccc(C(C)(C)NC(=O)[C@H]2CCCN(C)C2)cc1Cl` [Example 47, (3S)—N-[2-(3-chloro-4-methylphenyl)propane-2-yl]-1-methylpiperidine-3-carboxamide], for which the EC50 stood at 8 nM.
`Cc1ccc(C(C)(C)NC(=O)[C@H]2CCCN(C)C2)cc1` [Example 45] showed an EC50 of 84.9 nM. This EC50 lies about 11-fold higher than the previous one.
`CN1CCC[C@H](C(=O)NC(C)(C)c2cccc(Cl)c2F)C1` [Example 46] registered an EC50 of 21.6 nM.
Still for that read-out and setting: then `Cc1cc(Cl)cc(C(C)(C)NC(=O)[C@H]2CCCN(C)C2)c1` [Example 29, (3S)—N-[2-(3-chloro-5-methylphenyl)propane-2-yl]-1-methylpiperidine-3-carboxamide], with 5.3 nM.
On the same count and under the same terms, then `CC(C)c1cc(Cl)ccc1C(C)(C)NC(=O)[C@H]1CCCN(C)C1` [Example 33], with > 100 nM.
`CC(C)N1CCC[C@H](C(=O)NC(C)(C)c2cccc3ccccc23)C1` [Example 115, (3S)—N-[2-(naphthalene-1-yl)propane-2-yl]-1-(propane-2-yl)pyperidine-3-carboxamide]: the “SSTR4 agonist activity compared with other compounds” value is reported as “stronger SSTR4 agonist activity” and it took 1.9 nM to reach a half-maximal effect (EC50).
In the same order, the values of `CCc1cc(Cl)ccc1C(C)(C)NC(=O)[C@H]1CCCN(C)C1` [Example 31, (3S)—N-[2-(4-chloro-2-ethylphenyl)propane-2-yl]-1-methylpiperidine-3-carboxamide] are “stronger SSTR4 agonist activity” and 1.4 nM.
`Cc1ccccc1C(C)(C)NC(=O)[C@H]1CCCN(C)C1` [Example 43, (3S)—N-[2-(2-methylphenyl)propane-2-yl]-1-methylpiperidine-3-carboxamide] displayed an EC50 of 13 nM.
On the same count and under the same terms, next, `Cc1cc(C)cc(C(C)(C)NC(=O)[C@H]2CCCN(C)C2)c1` [Example 25]: 15.9 nM; `CN1CCC[C@H](C(=O)NC(C)(C)c2ccccc2Br)C1` [Example 67, (3S)—N-[2-(2-bromophenyl)propane-2-yl]-1-methylpiperidine-3-carboxamide]: 1.5 nM.
As for `C[C@@H]1CC[C@H](C(=O)NC(C)(C)c2cccc3ccccc23)CN1C` (relative stereo) [Example 81], the “SSTR4 agonist activity compared with other compounds” value was “stronger SSTR4 agonist activity” and the EC50 was 3.4 nM.
In turn, `COC1CC(C(=O)NC(C)(C)c2cccc(Cl)c2Cl)CN(C)C1` (centres unmarked) [Example 103] returned a half-maximal effective concentration (EC50) of 31.4 nM. This counts as double-digit nanomolar.
Same read-out and setting: then `CC(C)N1CCCC(C(=O)NC(C)(C)c2cccc3ccccc23)C1` (centres unmarked) [Example 119], with 3.5 nM.
For the molecule `CN1CCC[C@H](C(=O)NC(C)(C)c2ccc(Cl)cc2)C1` [Example 42], the response was half-maximal at 45.6 nM (EC50).
For the molecule `Cc1ccc(C(C)(C)NC(=O)[C@H]2CCCN(C)C2)c(Cl)c1` [Example 37, (3S)—N-[2-(2-chloro-4-methylphenyl)propane-2-yl]-1-methylpiperidine-3-carboxamide], the “SSTR4 agonist activity compared with other compounds” value was “stronger SSTR4 agonist activity” and the EC50 is 2.5 nM.
For `CN1CCC[C@H](C(=O)NC(C)(C)c2ccc(Cl)c(Cl)c2)C1` [Example 22], the EC50 was 10.9 nM.
Turning to `CN1CCC[C@H](C(=O)NC(C)(C)c2ccccc2S(C)(=O)=O)C1` [Example 64], the EC50 was > 100 nM.
`COc1cc(Cl)c(Cl)cc1C(C)(C)NC(=O)[C@H]1CCCN(C)C1` [Example 52]: the “SSTR4 agonist activity compared with other compounds” value was “stronger SSTR4 agonist activity” and the EC50 worked out at 1.2 nM.
With `CN1CCC[C@H](C(=O)NC(C)(C)c2ccc(Br)cc2)C1` [Example 68], the EC50 was > 100 nM.
Same read-out and setting: next, `CN1CCC[C@H](C(=O)NC(C)(C)c2ccc(S(C)(=O)=O)cc2)C1` [Example 63]: > 100 nM.
The same measure, in the same setting: then `CN1CCC[C@H](C(=O)NC(C)(C)c2ccccc2F)C1` [Example 1, (3S)—N-[2-(2-fluorophenyl)propane-2-yl]-1-methylpiperidine-3-carboxyamide], with 62.7 nM; and `CCC1CCC(C(=O)NC(C)(C)c2cccc(Cl)c2Cl)CN1C` (centres unmarked) [Example 102], with 61.8 nM.
`CCCCN1CCCC(C(=O)NC(C)(C)c2cccc3ccccc23)C1` (centres unmarked) [Example 118] registered an EC50 of 55.2 nM.
Take `Cc1ccc(C(C)(C)NC(=O)C2CCCN(C)C2)cc1C` (centres unmarked) [Example 6]: the EC50 was 14.2 nM.
Still for that read-out and setting: then `CN1CC(O)CC(C(=O)NC(C)(C)c2cccc3ccccc23)C1` (centres unmarked) [Example 83], with 7.4 nM.
Still for that read-out and setting: next, `Cc1cccc(C(C)(C)NC(=O)[C@H]2CCCN(C)C2)c1` [Example 44]: 28.2 nM; `CN1CCCC(C(=O)NC2(c3cccc4ccccc34)CC(F)(F)C2)C1` (centres unmarked) [Example 4]: 343 nM; `[2H]C([2H])([2H])N1CCC[C@H](C(=O)NC(C)(C)c2ccccc2Cl)C1` [Example 122]: 3.6 nM.
For `CC1CC(C(=O)NC(C)(C)c2cccc3ccccc23)CN(C)C1` (centres unmarked) [Example 86], the EC50 is 16.2 nM. This EC50 is about 4.5-fold higher than that of the molecule before.
Still for that read-out and setting: then `CN1CCC[C@H](C(=O)NC(C)(C)c2cccnc2)C1` [Example 57], with > 100 nM.
Still for that read-out and setting: then `CCc1ccc(C(C)(C)NC(=O)[C@H]2CCCN(C)C2)c(CC)c1` [Example 32, (3S)—N-[2-(2,4-diethylphenyl)propane-2-yl]-1-methylpiperidine-3-carboxamide], with 4 nM.
On to `CCN1CCCC(C(=O)NC(C)(C)c2cccc3ccccc23)C1` (centres unmarked) [Example 116], for which the “SSTR4 agonist activity compared with other compounds” value is “stronger SSTR4 agonist activity” and the EC50 was determined as 1.7 nM.
In the case of `Cc1cccc(C(C)(C)NC(=O)C2CCCN(C)C2)c1C` (centres unmarked) [Example 8], a half-maximal response (EC50) required 8.9 nM.
With `COc1ccccc1C(C)(C)NC(=O)[C@@H]1CN(C)CC[C@H]1c1ccccc1` (relative stereo) [Example 108], the “SSTR4 agonist activity compared with other compounds” value is “stronger SSTR4 agonist activity” and a half-maximal response (EC50) required 2.2 nM.
In the same order, the values of `C[C@@H]1[C@@H](C(=O)NC(C)(C)c2cccc3ccccc23)CCCN1C` (relative stereo) [Example 85] are “stronger SSTR4 agonist activity” and 1.5 nM.
Regarding `CN1CCC[C@H](C(=O)NC(C)(C)c2cccc(Cl)c2)C1` [Example 41], the concentration giving a half-maximal response (EC50) came out at 12.8 nM.
On the same count and under the same terms, next, `COc1ccc(Cl)cc1C(C)(C)NC(=O)[C@H]1CCCN(C)C1` [Example 51, (3S)—N-[2-(5-chloro-2-methoxylphenyl)propane-2-yl]-1-methylpiperidine-3-carboxamide]: 5 nM; `CN1CCCC(C(=O)NC2(c3cc(Cl)cc(Cl)c3)CCOCC2)C1` (centres unmarked) [Example 9, N-[4-(3,5-dichlorophenyl)tetrahydro-2H-pyran-4-yl]-1-methylpiperidine-3-carboxamide]: 43.3 nM; `CC(C)(NC(=O)[C@H]1CCCN(CCF)C1)c1cccc2ccccc12` [Example 113]: 3.1 nM.
Molecule `CN1CC(F)CC(C(=O)NC(C)(C)c2cccc3ccccc23)C1` (centres unmarked) [Example 92] came in with an EC50 of 3.2 nM.
Same read-out and setting: next, `CC[C@@H]1CC[C@@H](C(=O)NC(C)(C)c2cccc(Cl)c2Cl)CN1C` (relative stereo) [Example 99]: > 100 nM; `CN1CC(C(=O)NC(C)(C)c2cccc3ccccc23)CC(F)(F)C1` (centres unmarked) [Example 94]: 28.8 nM.
